No end group written: not given here.
Key:
[1] = tested on: Clavibacter michiganensis; assay: MIC and lethal concentration (Example 3); assay type: cell-based; conditions: Table 2; for MIC (>90% inhibition): 1-2 days at 25° C.; for LC, lethal concentration (100% inhibition): at least 4 days of incubation
Protocol: (§1) In-vitro inhibition assays were performed in sterile flat-bottom 96-well plates (Greiner bio-one, Frickenhausen). Antimicrobial peptides were dissolved in 0.01% acetic acid containing 0.2% BSA (500 μg/ml), filter sterilized and stored at −20° C. For inhibition assays dilutions of peptides ranging from 5 to 200 μg/ml were prepared and 10 μl (antibacterial assay) or 20 μl (antifungal assay) of each concentration was loaded per well.
(§2) Bacteria colonies from overnight agar plate cultures were resuspended into 5 ml LB-medium or HPG-medium (OD600 nm=0.08-0.1) and diluted into LB-medium/HPG-medium (1:100). 90 μl of this suspension containing about 10^5-10^6 CFU/ml of tested bacteria were added to each well resulting in final peptide concentrations of 0, 0.5, 1, 2, 5, 10, and 20 μg/ml. […] The lowest concentration, in which there is no observable growth (>90% inhibition) is referred to as minimal inhibitory concentration (MIC). […] For each peptide concentration two identical inhibition assays were performed.

[2] = tested on: Pseudomonas syringae pv. tomato; assay: MIC and lethal concentration (Example 3); assay type: cell-based; conditions: Table 2; for MIC (>90% inhibition): 1-2 days at 25° C.; for LC, lethal concentration (100% inhibition): at least 4 days of incubation
Protocol: as §1, §2

[3] = tested on: Xanthomonas vesicatoria; assay: MIC and lethal concentration (Example 3); assay type: cell-based; conditions: Table 2; for MIC (>90% inhibition): 1-2 days at 25° C.; for LC, lethal concentration (100% inhibition): at least 4 days of incubation
Protocol: as §1, §2

[4] = tested on: Pectobacterium carotovorum; assay: MIC and lethal concentration (Example 3); assay type: cell-based; conditions: Table 2; for MIC (>90% inhibition): 1-2 days at 25° C.; for LC, lethal concentration (100% inhibition): at least 4 days of incubation
Protocol: as §1, §2

[5] = tested on: Pseudomonas syringae pv. syringae; assay: MIC and lethal concentration (Example 3); assay type: cell-based; conditions: Table 2; for MIC (>90% inhibition): 1-2 days at 25° C.; for LC, lethal concentration (100% inhibition): at least 4 days of incubation
Protocol: as §1, §2

[6] = tested on: Pseudomonas corrugata; assay: MIC and lethal concentration (Example 3); assay type: cell-based; conditions: Table 2; for MIC (>90% inhibition): 1-2 days at 25° C.; for LC, lethal concentration (100% inhibition): at least 4 days of incubation
Protocol: as §1, §2

[7] = tested on: Pseudomonas syringae pv. tomato; conditions: Pseudomonas syringae pv. tomato; overnight 25° C.; Table 1
[8] = tested on: Pseudomonas corrugata; conditions: Pseudomonas corrugata; overnight 25° C.; Table 1
[9] = tested on: Pectobacterium carotovorum sub. carotovorum; conditions: Pectobacterium carotovorum sub. carotovorum; overnight 25° C.; Table 1
[10] = tested on: Clavibacter michiganensis sub. michiganensis; conditions: overnight 25° C., Table 1
[11] = tested on: human erythrocytes; assay: Hemolytic activity, hemoglobin release; assay type: cell-based; conditions: 45 min at 37° C., Table 3
Protocol: The hemolytic activity of the peptides was evaluated by determining hemoglobin release of suspensions of fresh human erythrocytes at 405 nm. Human red blood cells were centrifuged and washed three times with Tris-buffer (10 mM Tris, 150 mM NaCl, pH 7.4). Eighty μl of human red blood cells (1.5×10^9/ml) were added to 20 μl of the peptides solution (peptides dissolved in 0.2% BSA, 0.01% HAc) in 96-well plates (Greiner bio-one, Frickenhausen) and incubated for 45 min at 37° C. The endconcentration of the peptides were 0, 20, 50, 100 and 200 μg/ml. After centrifugation (1500×g, 5 min, 20° C.) 30 μl aliquots of the supernatant were transferred to 96-well plates containing 100 μl water. Hemolysis was measured by absorbance at 405 nm with a microplate reader. 100% hemolysis were determined in 2% SDS. The hemolysis percentage was calculated using the following equation: % hemolysis=[(Abs405 nm in the peptide solution−Abs405 nm in peptides solvent)/(Abs405 nm in 2% SDS−Abs405 nm in peptide solvent)]×100.
Further hemolytic activities of the various peptides of the present invention may be taken from the table depicted in example 3, last row indicated as “Hemolytic activity”. In connection therewith, however, the concentrations are stated where at least 50% hemolysis was observed.

[12] = tested on: Alternaria alternata; assay: MIC, antifungal in-vitro inhibition assay (Example 2); assay type: cell-based; conditions: Table 1
Protocol: as §1
(§3) Spores of fungi were collected by water washes of sporulating cultures grown on 2% malt extract agar and spore concentration was determined by microscopy. The concentration of the spores was adjusted to 1.5-2×10^3 spores/ml in 2% malt extract medium and 80 μl of fungal spores were added per well. The final peptide concentrations used in the fungal inhibition assays were […]. After overnight incubation at room temperature the plate were put on a rotary shaker (300 rpm) for further two days to ensure consistantly growth. Antifungal effects of the peptides were determined by a microplate reader (Alternaria, Fusarium) at OD590 nm or by visual screening of the plates (Botrytis, Cladosporium).
(§4) The lowest peptide concentration leading to complete inhibition of bacterial growth or spore germination/mycelial growth (minimal inhibition concentration, MIC) was determined for each organism-peptide combination. For each peptide concentration two identical inhibition assays were performed.

[13] = tested on: Botrytis cinerea; assay: as above; assay type: cell-based; conditions: Table 1
Protocol: as §1, §3, §4

[14] = tested on: Cladosporium herbarum; assay: as above; assay type: cell-based; conditions: Table 1
Protocol: as §1, §3, §4

[15] = tested on: Pseudomonas syringae pv. syringae; conditions: Pseudomonas syringae pv. syringae; overnight 25° C.; Table 1
[16] = tested on: Xanthomonas vesicatoria; conditions: Xanthomonas vesicatoria; overnight 25° C.; Table 1

Row | Substance | MIC (>90% inhibition) [1] | LC, lethal concentration (100% inhibition) [1] | MIC (>90% inhibition) [2] | LC, lethal concentration (100% inhibition) [2] | MIC (>90% inhibition) [3] | LC, lethal concentration (100% inhibition) [3] | MIC (>90% inhibition) [4] | LC, lethal concentration (100% inhibition) [4] | MIC (>90% inhibition) [5] | LC, lethal concentration (100% inhibition) [5] | MIC (>90% inhibition) [6] | LC, lethal concentration (100% inhibition) [6] | other results
1 | LRIIKKILKKLI-NH2 [SP10-5] | 0.5/0.5 μg/ml | 0.5/0.5 μg/ml | 0.25 µg/mL | 0.5 µg/mL | 0.25 µg/mL | 0.5 µg/mL | 2.5 µg/mL | 10 µg/mL | 0.5/0.5 μg/ml | 0.5/0.5 μg/ml | 0.5 µg/mL | 2.5 µg/mL | –
2 | LRFLKKILKKLF-NH2 [SP10-1] | 1.0 µg/mL | 2.5 µg/mL | 1.0/1.0 μg/ml | 1.0/1.0 μg/ml | 2.5/2.5 μg/ml | 2.5/2.5 μg/ml | 2.5 µg/mL | 5.0 µg/mL | 2.5/2.5 μg/ml | 2.5/2.5 μg/ml | 2.5/2.5 μg/ml | 2.5/2.5 μg/ml | –
3 | LRFLKKILKHLF (also: D-amino acids incorporated, places not given here) [SP10-D] | – | – | – | – | – | – | – | – | – | – | – | – | Minimal inhibition concentration (MIC) for complete inhibition of bacterial growth [7]: 0.5 µg/mL; Minimal inhibition concentration (MIC) for complete inhibition of bacterial growth [8]: 2.5 µg/mL; Minimal inhibition concentration (MIC) for complete inhibition of bacterial growth [9]: >40 µg/mL; Minimal inhibition concentration (MIC) for complete inhibition of bacterial growth [10]: 5 µg/mL; Hemolytic activity, concentration where at least 25% hemolysis was observed [11]: >200 µg/mL; Minimal inhibition concentration (MIC) for complete inhibition of spore germination/mycelial growth [12]: 5 µg/mL; Minimal inhibition concentration (MIC) for complete inhibition of spore germination/mycelial growth [13]: 10 µg/mL; Minimal inhibition concentration (MIC) for complete inhibition of spore germination/mycelial growth [14]: 5 µg/mL; Minimal inhibition concentration (MIC) for complete inhibition of bacterial growth [15]: 2.5 µg/mL; Minimal inhibition concentration (MIC) for complete inhibition of bacterial growth [16]: 2 µg/mL
4 | LRIIRRILRRLI-NH2 [SP10-6] | 2.5/2.5 μg/ml | 2.5/2.5 μg/ml | 1.0/1.0 μg/ml | 1.0/1.0 μg/ml | 1.0/1.0 μg/ml | 1.0/1.0 μg/ml | 2.5 µg/mL | 5.0 µg/mL | 2.5/2.5 μg/ml | 2.5/2.5 μg/ml | 2.5/2.5 μg/ml | 2.5/2.5 μg/ml | –
5 | LRFAKKALKKLF-NH2 [SP10-3] | 2.5/2.5 μg/ml | 2.5/2.5 μg/ml | 0.25/0.25 μg/ml | 0.25/0.25 μg/ml | 2.5/2.5 μg/ml | 2.5/2.5 μg/ml | >10/>10 μg/ml | >10/>10 μg/ml | 0.25 µg/mL | 2.5 µg/mL | 1.0 µg/mL | – | –

Reference: US20120020940A1, “ANTIMICROBIAL PEPTIDES” (Helmholtz Zentrum München Deutsches Forschungszentrum Für …, priority 2008, published 2012)
